Experimental data: patent publication US8822699B2, “Heterocyclic compound and use thereof” (Takeda Pharmaceutical Company Limited, priority 2010, dated 2014)
Read-outs that look alike come from different tables or passages of the source.

Assays:
[1] = system: Aβ42 production in primary nerve cells; experiment: Measurement of amyloid β production inhibition rate using primary nerve cell (Aβ42 sandwich ELISA); assay type: cell-based; conditions: primary nerve cells from cerebral cortex of SD rat fetus, cultured 3 days with compound, culture supernatant, sandwich ELISA for Aβ42, read-out: Aβ42 production inhibitory activity IC50
Experimental: Measurement of Amyloid β Production Inhibition Rate Using Primary Nerve Cell
The primary nerve cells were collected from the cerebral cortex of rat fetus (CLEA Japan, Inc.: SD rat, fetal life 17 days of age), and suspended in a neurobasal medium containing B27 supplement, L-glutamine, penicillin-streptomycin (manufactured by Invitrogen) at 500,000 cells/mL. Then, the suspension was seeded in poly L-lysine-coated 96 well plate (manufactured by SUMITOMO BAKELITE) by 100 μL, and cultured at 37° C., 5% CO2 for 7 days. The medium was completely removed, and a new neurobasal medium was added at 75 μL/well. Thereto was added (75 μL/well) a neurobasal medium supplemented with a 2-fold measurement concentration of an evaluation target compound, and the mixture was cultured for 3 days. The culture supernatant was collected from each well, diluted as appropriate, applied to sandwich ELISA between BNT77 antibody-BA27 antibody (for Aβ40) and sandwich ELISA between BNT77 antibody-3005 antibody (for Aβ42), and the amounts of Aβ40 and Aβ42 were measured.
The amyloid β production inhibition rate (%) of the compound was calculated by the following formula. (1−(amyloid β production amount with addition of compound)/(amyloid β production amount without addition of compound))×100
The amyloid β production 50% inhibitory rate (IC50 value) was calculated using the statistical analysis software (SAS Preclinical Package) as the concentration of the compound showing 50% inhibition when the amyloid β production amount without addition of the compound is 100%. In addition, a new neurobasal medium was added (75 μL/well) to the cells after collection of the culture supernatant, and the cells were left standing for about 30 min to reach room temperature. Cell-Titer Glo Luminescent Cell Viability Assay (manufactured by Promega) was added at 75 μL/well, and the plate was shaken for 2 min and reacted for about 10 min.

[2] = system: Aβ42 (soluble Aβ in hippocampi); experiment: Aβ42 in hippocampi of mice after oral administration (Aβ ELISA); assay type: in vivo; conditions: C57BL/6J mice, 10 mg/kg orally, hippocampi isolated 3 hours after administration, soluble Aβ42 by two-site sandwich ELISA; for inhibition at 10 mg/kg: Mus musculus, po, 3 h, read-out: Aβ42 production inhibitory activity (% inhibition)
Experimental: C57BL/6J mice (7-10 weeks old) were purchased from CLEA Japan Inc. Mice were housed in groups and kept on a 12 h-light; 12 h-dark schedule. All mice were given ad libitum access to food and water.
Each test compound was reconstituted in solubilization buffer ([DMSO (Wako)]: [10% Cremophor (Nakarai)+30% polyethylene glycol 400 (Wako)+60% 2 mol/L Citrate buffer (Wako)]=1:9) and orally administrated at 10 mg/kg.
Hippocampi was isolated from animals, 3 hours after test compounds were orally administrated. Hippocampi were homogenized in ice-cold Tris-extraction buffer (50 mmol/L Tris-HCl, pH 7.2, 200 mmol/L sodium chloride, 2% protease-free bovine serum albumin, and 0.01% sodium merthiolate) containing protease inhibitor cocktails (Roche, Switzerland). After centrifugation at 15,000 rpm for 15 minutes, the supernatants were subjected to two-site sandwich ELISA to measure amount of soluble Aβ. Aβ42 was quantitated by two-site sandwich ELISA using BNT77, which recognizes Aβ11-28, as a capture antibody and BC05-HRP as a detector antibody, respectively.

| SMILES | IC50 ([1]; Rattus norvegicus, 72 h) | inhibition at 10 mg/kg [2] | IC50 [1] | Aβ42 production inhibitory activity (% inhibition) ([2]; 10 mg/kg) |
| --- | --- | --- | --- | --- |
| CCC(O)(CC)C1(Oc2ccc(Cl)c(F)c2)CCCn2c(-c3ccc(-c4cnc(C)o4)c(OC)c3)nnc21 (stereo not drawn) [Example 120, 3-{8-(4-chloro-3-fluorophenoxy)-3-[3-methoxy-4-(2-methyl-1,3-oxazol-5-yl)phenyl]-5,6,7,8-tetrahydro[1,2,4]triazolo-[4,3-a]pyridin-8-yl}pentan-3-ol] | 4 nM | 21% |  |  |
| COc1cc(-c2nnc3n2CCCC3(Oc2cccc(C(F)(F)F)c2)C(C)(C)O)ccc1-c1cnc(C)o1 (stereo not drawn) [Example 130, 2-{3-[3-methoxy-4-(2-methyl-1,3-oxazol-5-yl)phenyl]-8-[3-(trifluoromethyl)phenoxy]-5,6,7,8-tetrahydro[1,2,4]triazolo[4,3-a]pyridin-8-yl}propan-2-ol] |  |  | 24 nM | 59% |
| COc1nc(-c2nnc3n2CCCC3(Oc2ccc(Cl)c(F)c2)C(C)(C)O)ccc1-n1cnc(C)c1 (stereo not drawn) [Example 1, 2-{8-(4-chloro-3-fluorophenoxy)-3-[6-methoxy-5-(4-methyl-1H-imidazol-1-yl)pyridin-2-yl]-5,6,7,8-tetrahydro[1,2,4]triazolo[4,3-a]pyridin-8-yl}propan-2-ol] | 27 nM | 40% |  |  |
| COc1nc(-c2nnc3n2CCCC3(Oc2cc(F)c(F)c(F)c2)C(C)(C)O)ccc1-n1cnc(C)c1 (stereo not drawn) [Example 134, 2-{3-[6-methoxy-5-(4-methyl-1H-imidazol-1-yl)pyridin-2-yl]-8-(3,4,5-trifluorophenoxy)-5,6,7,8-tetrahydro[1,2,4]triazolo[4,3-a]pyridin-8-yl}propan-2-ol] | 42 nM | 31% |  |  |
| COc1nc(-c2nnc3n2CCCC3(Oc2ccc(F)c(C(F)(F)F)c2)C(C)(C)O)ccc1-n1cnc(C)c1 (stereo not drawn) [Example 157, 2-{8-[4-fluoro-3-(trifluoromethyl)phenoxy]-3-[6-methoxy-5-(4-methyl-1H-imidazol-1-yl)pyridin-2-yl]-5,6,7,8-tetrahydro[1,2,4]triazolo[4,3-a]pyridin-8-yl}propan-2-ol] |  | 61% | 6 nM |  |
| COc1nc(-c2nnc3n2CCC[C@]3(Oc2cc(F)c(F)c(F)c2)C(C)(C)O)ccc1-n1cnc(C)c1 [Example 152, 2-{(8R)-3-[6-methoxy-5-(4-methyl-1H-imidazol-1-yl)pyridin-2-yl]-8-(3,4,5-trifluorophenoxy)-5,6,7,8-tetrahydro[1,2,4]triazolo[4,3-a]pyridin-8-yl}propan-2-ol] | 49 nM | 57% |  |  |
| COc1cc(-c2nnc3n2CCCC3(COc2ccc(Cl)cc2)C(C)(C)O)ccc1-c1cnc(C)o1 (stereo not drawn) [Example 127, 2-{8-[(4-chlorophenoxy)methyl]-3-[3-methoxy-4-(2-methyl-1,3-oxazol-5-yl)phenyl]-5,6,7,8-tetrahydro[1,2,4]triazolo[4,3-a]pyridin-8-yl}propan-2-ol] | 44 nM | 21% |  |  |
| COc1cc(-c2nnc3n2CCCC3(CC2CC2)c2ccc(F)c(F)c2)ccc1-c1cnc(C)o1 (stereo not drawn) [Example 21, optically active 8-(cyclopropylmethyl)-8-(3,4-difluorophenyl)-3-[3-methoxy-4-(2-methyl-1,3-oxazol-5-yl)phenyl]-5,6,7,8-tetrahydro[1,2,4]triazolo[4,3-a]pyridine] |  | 39% | 5 nM |  |
| COc1cc(-c2nnc3n2CCCC3(Oc2cc(F)cc(F)c2)C(C)(C)O)ccc1-c1cnc(C)o1 (stereo not drawn) [Example 141, 2-{8-(3,5-difluorophenoxy)-3-[3-methoxy-4-(2-methyl-1,3-oxazol-5-yl)phenyl]-5,6,7,8-tetrahydro[1,2,4]triazolo[4,3-a]pyridin-8-yl}propan-2-ol] |  | 46% | 78 nM |  |
| COc1nc(-c2nnc3n2CCCC3(Oc2cc(F)c(F)c(F)c2)C(C)(C)O)ccc1-c1cnc(C)o1 (stereo not drawn) [Example 172, 2-{3-[6-methoxy-5-(2-methyl-1,3-oxazol-5-yl)pyridin-2-yl]-8-(3,4,5-trifluorophenoxy)-5,6,7,8-tetrahydro[1,2,4]triazolo[4,3-a]pyridin-8-yl}propan-2-ol] | 47 nM | 35% |  |  |
| COc1cc(-c2nnc3n2CCCC3(Oc2cc(F)c(F)c(F)c2)C(C)(C)O)ccc1-c1cnc(C)o1 (stereo not drawn) [Example 99, 2-{3-[3-methoxy-4-(2-methyl-1,3-oxazol-5-yl)phenyl]-8-(3,4,5-trifluorophenoxy)-5,6,7,8-tetrahydro[1,2,4]triazolo[4,3-a]pyridin-8-yl}propan-2-ol] | 20 nM | 34% |  |  |
| COc1cc(-c2nnn3c2CCCC3(Oc2cc(F)c(F)c(F)c2)C(C)(C)O)ccc1-c1cnc(C)o1 (stereo not drawn) [Example 186, 2-{3-[3-methoxy-4-(2-methyl-1,3-oxazol-5-yl)phenyl]-7-(3,4,5-trifluorophenoxy)-4,5,6,7-tetrahydro[1,2,3]triazolo[1,5-a]pyridin-7-yl}propan-2-ol] |  | 22% | 28 nM |  |
| COc1cc(-c2nnc3n2CCC[C@]3(Oc2cc(F)c(F)c(F)c2)C(C)(C)O)ccc1-c1cnc(C)o1 [Example 122, 2-{(8R)-3-[3-methoxy-4-(2-methyl-1,3-oxazol-5-yl)phenyl]-8-(3,4,5-trifluorophenoxy)-5,6,7,8-tetrahydro[1,2,4]triazolo[4,3-a]pyridin-8-yl}propan-2-ol] | 19 nM | 54% |  |  |
| COc1cc(-c2nnc3n2CCCC3(Oc2ccc(F)c(F)c2)C(C)(C)O)ccc1-c1cnc(C)o1 (stereo not drawn) [Example 124, 2-{8-(3,4-difluorophenoxy)-3-[3-methoxy-4-(2-methyl-1,3-oxazol-5-yl)phenyl]-5,6,7,8-tetrahydro[1,2,4]triazolo[4,3-a]pyridin-8-yl}propan-2-ol] |  | 41% | 68 nM |  |
| COc1cc(-c2nnc3n2CCCC3(Oc2ccc(C(F)(F)F)cn2)C(C)(C)O)ccc1-c1cnc(C)o1 (stereo not drawn) [Example 95, 2-(3-[3-methoxy-4-(2-methyl-1,3-oxazol-5-yl)phenyl]-8-{[5-(trifluoromethyl)pyridin-2-yl]oxy}-5,6,7,8-tetrahydro[1,2,4]triazolo-[4,3-a]pyridin-8-yl)propan-2-ol] | 34 nM |  |  |  |
| Cc1ncc(-c2ccc(-c3nnc4n3CCCC4(Oc3ccc(F)c(F)c3)C(C)(C)O)cc2O)o1 (stereo not drawn) [Example 168, 5-[8-(3,4-difluorophenoxy)-8-(1-hydroxy-1-methylethyl)-5,6,7,8-tetrahydro[1,2,4]triazolo[4,3-a]pyridin-3-yl]-2-(2-methyl-1,3-oxazol-5-yl)phenol] | 40 nM |  |  |  |
| COc1cc(-c2nnc3n2CCCC3(Oc2cc(F)c(F)c(F)c2)C(C)(C)O)ccc1-c1ccnc(C)c1 (stereo not drawn) [Example 174, 2-{3-[3-methoxy-4-(2-methylpyridin-4-yl)phenyl]-8-(3,4,5-trifluorophenoxy)-5,6,7,8-tetrahydro[1,2,4]triazolo[4,3-a]pyridin-8-yl}propan-2-ol] | 44 nM |  |  |  |
| COc1nc(-c2nnc3n2CCC[C@]3(Oc2cc(F)c(F)c(F)c2)C(C)(C)O)ccc1-n1cnc(C)c1 [Example 187, 2-{(8R)-3-[6-methoxy-5-(4-methyl-1H-imidazol-1-yl)pyridin-2-yl]-8-(3,4,5-trifluorophenoxy)-5,6,7,8-tetrahydro[1,2,4]triazolo[4,3-a]pyridin-8-yl}propan-2-ol 1(+)-mandelate] |  |  | 29 nM |  |
| COc1cc(-c2nnc3n2CCCC3(Oc2cc(F)c(F)c(F)c2)C(C)(C)O)ccc1-n1cnc(Cl)c1 (stereo not drawn) [Example 165, 2-{3-[4-(4-chloro-1H-imidazol-1-yl)-3-methoxyphenyl]-8-(3,4,5-trifluorophenoxy)-5,6,7,8-tetrahydro[1,2,4]triazolo[4,3-a]pyridin-8-yl}propan-2-ol] | 143 nM |  |  |  |
